Assay results from ChEMBL document CHEMBL1201862, “PubChem BioAssay data set” (2004).
Active and inactive are the calls of the source.

Experiments:
[1] = cAMP pathway inhibition in counterscreen cell line – TR-FRET cAMP detection, counter-screen for MC4R biased antagonist project, dose response (AID 602305); format: functional, cell-based;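 note: U2OS cells stimulated with forskolin near its EC80 as the cAMP inducer; potency is for inhibition of forskolin-stimulated cAMP signaling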
Melanocortin receptor 4 = Melanocortin receptor 4 (Homo sapiens, UniProt P32245); assay: inhibitors of MC4R cAMP signaling – cell-based, TR-FRET, biased antagonists, dose response (AID 602298); format: functional;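 note: antagonist potency against agonist-stimulated cAMP production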
[2] = target: Latent membrane protein 1 (Human herpesvirus 4 (strain B95-8), UniProt P03230); assay: LMP1 TES1 pathway selectivity over dsRED control – imaging, HEK293T, dual-color eGFP/dsRED, cherry-picks, selectivity assay for LMP1 NF-kB inhibitor project, dose response (AID 588398); format: functional, cell-based
Vero = assay: cells; format: functional; conditions: Chlorocebus sabaeus
HEK293 = assay: EBV LMP1 TES2 canonical NF-kB signalling blockers – cell-based, HEK293, luciferase, cherry-pick, dose response (AID 588343); format: functional; conditions: Homo sapiens
[3] = target: T1, High affinity choline transporter 1 (Homo sapiens, UniProt Q9GZV3); assay: human choline transporter blockers, potency – cell-based, 5-point CRC, membrane potential dye, dose response (AID 504840); format: functional
T1 sequence (Q9GZV3 whole entry): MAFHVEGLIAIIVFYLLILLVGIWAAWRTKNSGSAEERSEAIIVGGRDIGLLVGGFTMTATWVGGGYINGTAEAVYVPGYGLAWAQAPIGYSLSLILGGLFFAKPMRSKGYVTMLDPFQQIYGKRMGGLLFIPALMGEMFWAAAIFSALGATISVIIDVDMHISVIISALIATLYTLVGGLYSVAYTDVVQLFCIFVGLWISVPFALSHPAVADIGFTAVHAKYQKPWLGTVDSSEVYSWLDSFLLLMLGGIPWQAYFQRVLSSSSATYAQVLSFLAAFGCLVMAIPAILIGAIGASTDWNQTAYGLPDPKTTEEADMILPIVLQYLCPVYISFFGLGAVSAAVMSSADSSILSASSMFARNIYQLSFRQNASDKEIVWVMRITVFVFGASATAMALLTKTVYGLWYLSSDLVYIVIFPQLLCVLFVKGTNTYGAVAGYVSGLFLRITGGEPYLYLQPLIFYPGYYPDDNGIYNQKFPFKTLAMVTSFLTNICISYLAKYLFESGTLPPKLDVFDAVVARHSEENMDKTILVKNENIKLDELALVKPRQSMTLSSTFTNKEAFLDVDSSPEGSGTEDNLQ

[4] = target: T1, High affinity choline transporter 1; assay: human choline transporter blockers, potency – cell-based, 10-point CRC, membrane potential dye, dose response (AID 588401); format: functional;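 note: membrane potential dye fluorescence of choline-evoked depolarization via CHT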
[5] = target: T1, High affinity choline transporter 1; assay: human choline transporter radiolabel uptake blockers – cell-based, 3H-choline uptake, CHT LV-AA trafficking mutant, CRC, dose response (AID 602208); format: functional
[6] = target: Beta-2 adrenergic receptor (Homo sapiens, UniProt P07550); assay: ADRB2 activation measured by internalization – cell-based, FAP fluorogen, flow cytometry, cherry pick 1, dose response (AID 588763); format: functional
[7] = target: Potassium voltage-gated channel subfamily KQT member 2 (Rattus norvegicus, UniProt O88943); assay: blockers of KCNQ2 channel current – cell-based, automated electrophysiology, set II, rat KCNQ2, dose response (AID 588637); format: functional
[8] = Luminescence Cell-Based Dose Confirmation HTS to Identify Inhibitors of Platelet Dense Granule Release. [Related pubchem assays: 1663 (Primary HTS), 1678 (Summary of Project)]; format: functional
[9] = target: Luciferin 4-monooxygenase (Photinus pyralis, UniProt P08659); assay: inhibition of purified Photinus pyralis luciferase – biochemical, luminescence, dose response (AID 1891)
[10] = DRD fibroblast viability loss – cell-based, non-viral oncogenic, luminescence, dose response (AID 1934); format: functional; conditions: Homo sapiens
BJ [11] = assay: BJ-TERT-LT-ST fibroblast viability loss – cell-based, RAS-independent, luminescence, dose response (AID 1935); format: functional; conditions: Homo sapiens;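 note: BJ fibroblasts immortalized with TERT plus LT and ST oncogenes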
BJ [12] = assay: BJ-TERT fibroblast viability loss – cell-based, RAS-independent, luminescence, dose response (AID 1933); format: functional; conditions: Homo sapiens
BJ [13] = assay: cells; format: functional, cell-based; conditions: Homo sapiens
BJ [14] = assay: growth inhibition of engineered Ras-driven BJ cells – cell-based, alamar blue fluorescence, cherrypicked samples, dose response (AID 2631); format: functional; conditions: Homo sapiens;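 note: confirmatory dose-response assay in RAS-dependent BJ fibroblasts engineered with TERT, LT and ST, with cytotoxicity read by fluorescence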

Chain of Luciferin 4-monooxygenase (P08659 whole entry): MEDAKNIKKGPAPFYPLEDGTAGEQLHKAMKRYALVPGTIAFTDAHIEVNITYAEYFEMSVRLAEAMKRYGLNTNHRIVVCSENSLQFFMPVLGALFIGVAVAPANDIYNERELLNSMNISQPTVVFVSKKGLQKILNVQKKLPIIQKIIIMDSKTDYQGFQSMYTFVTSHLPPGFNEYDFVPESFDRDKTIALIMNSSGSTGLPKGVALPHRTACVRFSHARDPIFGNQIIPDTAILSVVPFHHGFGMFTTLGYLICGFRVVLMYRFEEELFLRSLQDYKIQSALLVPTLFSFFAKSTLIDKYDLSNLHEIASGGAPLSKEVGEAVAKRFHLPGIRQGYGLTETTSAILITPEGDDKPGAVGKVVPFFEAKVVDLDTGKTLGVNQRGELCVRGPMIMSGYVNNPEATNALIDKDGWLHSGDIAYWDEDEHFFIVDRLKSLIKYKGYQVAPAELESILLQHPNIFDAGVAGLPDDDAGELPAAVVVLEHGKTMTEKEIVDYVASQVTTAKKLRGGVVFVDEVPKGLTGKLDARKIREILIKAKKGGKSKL
Chain of Latent membrane protein 1 (P03230 whole entry): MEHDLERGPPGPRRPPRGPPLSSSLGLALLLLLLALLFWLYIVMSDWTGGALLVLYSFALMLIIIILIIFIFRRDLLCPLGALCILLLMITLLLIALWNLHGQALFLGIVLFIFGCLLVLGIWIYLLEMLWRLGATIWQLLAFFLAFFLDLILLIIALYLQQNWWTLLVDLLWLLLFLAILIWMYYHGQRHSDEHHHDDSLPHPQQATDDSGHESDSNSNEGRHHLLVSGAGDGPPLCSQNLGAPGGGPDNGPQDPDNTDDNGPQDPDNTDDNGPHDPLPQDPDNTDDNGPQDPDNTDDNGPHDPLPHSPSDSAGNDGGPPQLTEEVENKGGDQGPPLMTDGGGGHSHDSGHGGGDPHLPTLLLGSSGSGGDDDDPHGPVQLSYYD
Chain of Potassium voltage-gated channel subfamily KQT member 2 (O88943 whole entry): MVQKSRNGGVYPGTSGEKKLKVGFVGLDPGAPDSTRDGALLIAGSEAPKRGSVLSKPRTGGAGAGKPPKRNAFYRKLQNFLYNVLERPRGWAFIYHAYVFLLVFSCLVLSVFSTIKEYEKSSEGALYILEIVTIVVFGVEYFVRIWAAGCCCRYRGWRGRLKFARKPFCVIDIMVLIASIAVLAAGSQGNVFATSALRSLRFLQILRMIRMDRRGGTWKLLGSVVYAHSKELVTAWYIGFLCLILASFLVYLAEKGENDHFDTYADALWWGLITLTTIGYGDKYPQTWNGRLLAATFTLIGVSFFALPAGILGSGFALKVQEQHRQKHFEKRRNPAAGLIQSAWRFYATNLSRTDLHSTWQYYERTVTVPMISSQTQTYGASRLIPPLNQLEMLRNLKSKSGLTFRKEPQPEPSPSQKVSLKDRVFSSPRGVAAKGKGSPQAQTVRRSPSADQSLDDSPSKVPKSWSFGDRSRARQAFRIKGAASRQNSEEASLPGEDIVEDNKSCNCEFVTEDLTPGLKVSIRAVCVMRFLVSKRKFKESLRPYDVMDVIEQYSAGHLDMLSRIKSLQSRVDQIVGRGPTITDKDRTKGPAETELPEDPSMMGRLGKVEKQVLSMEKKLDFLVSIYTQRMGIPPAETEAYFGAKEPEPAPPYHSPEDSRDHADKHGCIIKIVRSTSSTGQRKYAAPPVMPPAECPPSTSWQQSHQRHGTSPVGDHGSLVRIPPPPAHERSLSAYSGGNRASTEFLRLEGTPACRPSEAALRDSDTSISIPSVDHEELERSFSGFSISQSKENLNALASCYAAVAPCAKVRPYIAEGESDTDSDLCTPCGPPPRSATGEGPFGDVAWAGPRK
Chain of Beta-2 adrenergic receptor (P07550 whole entry): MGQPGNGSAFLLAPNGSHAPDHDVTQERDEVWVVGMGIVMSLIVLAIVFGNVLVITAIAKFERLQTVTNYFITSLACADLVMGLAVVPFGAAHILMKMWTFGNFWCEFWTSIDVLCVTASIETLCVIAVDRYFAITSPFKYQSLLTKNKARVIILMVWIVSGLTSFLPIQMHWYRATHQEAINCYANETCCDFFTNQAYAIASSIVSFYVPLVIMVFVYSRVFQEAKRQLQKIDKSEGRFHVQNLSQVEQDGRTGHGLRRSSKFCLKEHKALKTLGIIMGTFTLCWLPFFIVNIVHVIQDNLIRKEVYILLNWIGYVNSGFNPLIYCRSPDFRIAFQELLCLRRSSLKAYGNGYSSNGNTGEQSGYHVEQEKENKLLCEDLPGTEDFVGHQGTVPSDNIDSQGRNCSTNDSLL
Chain of Melanocortin receptor 4 (P32245 whole entry): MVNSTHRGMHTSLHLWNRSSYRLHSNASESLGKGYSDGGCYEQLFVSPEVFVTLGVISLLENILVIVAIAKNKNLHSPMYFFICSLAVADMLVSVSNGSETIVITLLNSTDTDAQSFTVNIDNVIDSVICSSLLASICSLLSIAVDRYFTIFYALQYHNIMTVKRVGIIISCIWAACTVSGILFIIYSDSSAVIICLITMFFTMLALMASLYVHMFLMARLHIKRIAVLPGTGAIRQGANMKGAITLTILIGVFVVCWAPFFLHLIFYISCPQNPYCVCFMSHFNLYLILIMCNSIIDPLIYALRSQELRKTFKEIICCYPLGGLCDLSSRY

CSCCC(NC(=O)c1cccc(C)c1)C(=O)OCN1C(=O)c2ccccc2C1=O (stereo not drawn)
IC50 [1]: > 64.6 µM (inactive) | IC50 (Melanocortin receptor 4): > 21.5 µM (inactive)

O=C1/C(=C/c2ccncc2)SC(=S)N1Cc1ccccc1
AC50 [2]: 30.1 µM (active) | CC50 (Vero): > 25 µM (active) | AC50 (HEK293): 678 nM (active)

COc1ccc(C(=O)NC(C)Cc2cnccn2)cc1OC1CCN(C(C)C)CC1 (stereo not drawn)
IC50 [3]: 9.9 µM (active) | IC50 [4]: 4.47 µM (active) | IC50 [5]: 7.51 µM (active)

CC1(C)Cc2c(c(N3CCOCC3)nc3sc4c(NCCN)ncnc4c23)CO1
EC50 [6]: 158 nM (active)

COc1cc(C(=O)Nc2cccc(C)c2C)c(Br)c(OC)c1OC
IC50 [7]: 633 nM (active)

COc1cccc(C(=O)Nc2ccc(N3CCCC3)cc2)c1
EC50 [8]: 1.2 µM (active) | EC50 [9]: 856 nM (active) | EC50 [10]: 4.29 µM (active) | EC50 (BJ [11]): 13.8 µM (active) | EC50 (BJ [12]): 9.4 µM (active) | EC50 (BJ [13]): 3.26 µM (active) | EC50 (BJ [14]): 86.1 µM (active)

C=C1C(=O)O[C@@H]2C[C@@H](C)[C@H]3C=CC(=O)[C@]3(O)C[C@@H]12
EC50 (BJ [14]): 3.09 µM (active)
